Results as given in patent publication US10988456B2, “O-aminoheteroaryl alkynyl-containing compound, preparation method therefor, and use thereof” (SHANGHAI INSTITUTE OF MATERIA MEDICA, CHINESE ACADEMY OF …, priority 2017, dated 2021).

How the values were obtained:
Test in all cases: Inhibition of receptor tyrosine kinase activity at molecular level (ELISA, Poly(Glu,Tyr)4:1 substrate phosphorylation)
Assay type in all cases: biochemical
Conditions in all cases: 10 nM compound; average of two independent experiments
[1] = target: FGFR1 (Homo sapiens, UniProt P11362)
Method: (§1) Enzyme reaction substrate Poly(Glu, Tyr)4:1 was diluted with potassium-free PBS (10 mM sodium phosphate buffer, 150 mM NaCl, pH 7.2-7.4) to 20 μg/mL. […] The reaction was conducted under 37° C. for 12-16 hours. After the liquid was removed from the wells, the plate was washed three times with 200 μL/well of T-PBS (PBS containing 0.1% Tween-20), each for 5 minutes. The enzyme plate was dried in 37° C. dryer for 1-2 hours.
(§2) 50 μL ATP solution diluted with buffer (50 mM HEPES pH 7.4, 50 mM MgCl2, 0.5 mM MnCl2, 0.2 mM Na3VO4, 1 mM DTT) to a final concentration of 5 μM was added into each well. The compound was diluted with DMSO to a suitable concentration (1 μL/well) or the well contained the corresponding concentration of DMSO (negative control well) Then various kinase recombinant proteins diluted with 49 μL of reaction buffer was added to initiate the reaction. Each experiment required duplicate enzyme-free control well. The reaction was carried out for 1 hour on a 37° C. Shaker (100 rpm). The plate was washed three times with T-PBS. A dilution of the primary antibody PY99 was added (100 μL/well), and the reaction was conducted in a shaker at 37° C. for 0.5 hr. The plate was washed three times with T-PBS. A dilution of the horseradish peroxidase-labeled goat anti-mouse IgG secondary antibody was added (100 μL/well), and the reaction was conducted in a shaker at 37° C. for 0.5 hour. Plate was washed with T-PBS for three times. 2 mg/mL OPD coloration solution (diluted with 0.1 M citric acid-sodium citrate buffer containing 0.03% H2O2 (pH=5.4)) was added (100 μL/well), reacted for 1-10 minutes at 25° C. in dark. The reaction was quenched with 2M H2SO4 (50 μL/well), and read at 490 nm using a tunable microplate reader SPECTRA MAX 190.
(§3) The inhibition ratio of the sample was determined by the following formula: […]
(§4) The IC50 values were obtained via four-parameter regression analysis using the software supplied with the microplate reader.

[2] = target: KDR (Homo sapiens, UniProt P35968)
Method: as §1, §2, §3, §4

[3] = target: RET (Homo sapiens, UniProt P07949)
Method: as §1, §2, §3, §4

Chain of RET (P07949 29-1114): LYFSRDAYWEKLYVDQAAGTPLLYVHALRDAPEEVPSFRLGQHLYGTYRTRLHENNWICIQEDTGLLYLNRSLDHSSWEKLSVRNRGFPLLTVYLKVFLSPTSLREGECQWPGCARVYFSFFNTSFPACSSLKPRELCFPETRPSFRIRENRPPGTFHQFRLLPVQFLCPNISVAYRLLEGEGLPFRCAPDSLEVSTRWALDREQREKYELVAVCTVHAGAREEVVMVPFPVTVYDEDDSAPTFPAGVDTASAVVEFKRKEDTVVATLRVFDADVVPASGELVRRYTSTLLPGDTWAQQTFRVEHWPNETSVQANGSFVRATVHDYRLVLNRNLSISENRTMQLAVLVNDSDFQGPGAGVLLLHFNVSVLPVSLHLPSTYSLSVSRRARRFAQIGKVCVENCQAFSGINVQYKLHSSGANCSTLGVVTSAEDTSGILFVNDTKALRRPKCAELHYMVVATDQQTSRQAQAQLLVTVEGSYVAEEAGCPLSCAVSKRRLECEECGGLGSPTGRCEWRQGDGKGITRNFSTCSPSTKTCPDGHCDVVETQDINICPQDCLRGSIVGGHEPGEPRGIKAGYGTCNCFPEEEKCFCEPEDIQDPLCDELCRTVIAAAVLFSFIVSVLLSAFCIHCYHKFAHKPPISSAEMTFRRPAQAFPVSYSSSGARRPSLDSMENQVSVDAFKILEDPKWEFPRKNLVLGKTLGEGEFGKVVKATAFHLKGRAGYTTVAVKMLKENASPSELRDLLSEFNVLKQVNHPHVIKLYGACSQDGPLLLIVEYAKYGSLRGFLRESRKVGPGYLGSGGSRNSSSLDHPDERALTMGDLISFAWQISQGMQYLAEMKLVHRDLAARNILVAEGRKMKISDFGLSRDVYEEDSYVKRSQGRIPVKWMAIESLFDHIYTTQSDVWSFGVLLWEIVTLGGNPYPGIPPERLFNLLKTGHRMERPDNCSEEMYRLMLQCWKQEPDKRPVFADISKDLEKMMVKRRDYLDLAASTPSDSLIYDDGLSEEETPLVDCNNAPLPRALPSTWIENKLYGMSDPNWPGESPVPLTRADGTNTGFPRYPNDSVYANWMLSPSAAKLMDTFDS
Chain of FGFR1 (P11362 22-822): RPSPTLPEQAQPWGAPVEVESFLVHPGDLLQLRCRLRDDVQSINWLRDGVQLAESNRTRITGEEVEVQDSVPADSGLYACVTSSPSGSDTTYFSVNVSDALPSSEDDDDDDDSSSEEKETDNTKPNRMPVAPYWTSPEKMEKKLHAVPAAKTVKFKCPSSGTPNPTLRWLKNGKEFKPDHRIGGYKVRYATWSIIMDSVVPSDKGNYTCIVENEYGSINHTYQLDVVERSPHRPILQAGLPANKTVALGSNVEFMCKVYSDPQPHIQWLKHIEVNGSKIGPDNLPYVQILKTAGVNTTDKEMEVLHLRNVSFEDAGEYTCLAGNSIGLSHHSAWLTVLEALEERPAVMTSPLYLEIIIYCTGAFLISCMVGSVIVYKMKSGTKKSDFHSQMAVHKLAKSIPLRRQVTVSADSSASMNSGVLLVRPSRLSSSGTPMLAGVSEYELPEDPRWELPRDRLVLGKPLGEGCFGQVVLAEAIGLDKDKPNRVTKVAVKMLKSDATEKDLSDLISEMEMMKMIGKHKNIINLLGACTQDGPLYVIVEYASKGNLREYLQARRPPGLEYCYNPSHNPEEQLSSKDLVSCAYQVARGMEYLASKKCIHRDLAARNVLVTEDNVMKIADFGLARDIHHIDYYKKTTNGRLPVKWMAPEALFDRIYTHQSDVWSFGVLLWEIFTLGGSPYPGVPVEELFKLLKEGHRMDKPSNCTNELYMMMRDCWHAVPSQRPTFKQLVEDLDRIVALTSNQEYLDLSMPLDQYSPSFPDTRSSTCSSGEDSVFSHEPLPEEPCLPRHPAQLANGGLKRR
Chain of KDR (P35968 20-1356): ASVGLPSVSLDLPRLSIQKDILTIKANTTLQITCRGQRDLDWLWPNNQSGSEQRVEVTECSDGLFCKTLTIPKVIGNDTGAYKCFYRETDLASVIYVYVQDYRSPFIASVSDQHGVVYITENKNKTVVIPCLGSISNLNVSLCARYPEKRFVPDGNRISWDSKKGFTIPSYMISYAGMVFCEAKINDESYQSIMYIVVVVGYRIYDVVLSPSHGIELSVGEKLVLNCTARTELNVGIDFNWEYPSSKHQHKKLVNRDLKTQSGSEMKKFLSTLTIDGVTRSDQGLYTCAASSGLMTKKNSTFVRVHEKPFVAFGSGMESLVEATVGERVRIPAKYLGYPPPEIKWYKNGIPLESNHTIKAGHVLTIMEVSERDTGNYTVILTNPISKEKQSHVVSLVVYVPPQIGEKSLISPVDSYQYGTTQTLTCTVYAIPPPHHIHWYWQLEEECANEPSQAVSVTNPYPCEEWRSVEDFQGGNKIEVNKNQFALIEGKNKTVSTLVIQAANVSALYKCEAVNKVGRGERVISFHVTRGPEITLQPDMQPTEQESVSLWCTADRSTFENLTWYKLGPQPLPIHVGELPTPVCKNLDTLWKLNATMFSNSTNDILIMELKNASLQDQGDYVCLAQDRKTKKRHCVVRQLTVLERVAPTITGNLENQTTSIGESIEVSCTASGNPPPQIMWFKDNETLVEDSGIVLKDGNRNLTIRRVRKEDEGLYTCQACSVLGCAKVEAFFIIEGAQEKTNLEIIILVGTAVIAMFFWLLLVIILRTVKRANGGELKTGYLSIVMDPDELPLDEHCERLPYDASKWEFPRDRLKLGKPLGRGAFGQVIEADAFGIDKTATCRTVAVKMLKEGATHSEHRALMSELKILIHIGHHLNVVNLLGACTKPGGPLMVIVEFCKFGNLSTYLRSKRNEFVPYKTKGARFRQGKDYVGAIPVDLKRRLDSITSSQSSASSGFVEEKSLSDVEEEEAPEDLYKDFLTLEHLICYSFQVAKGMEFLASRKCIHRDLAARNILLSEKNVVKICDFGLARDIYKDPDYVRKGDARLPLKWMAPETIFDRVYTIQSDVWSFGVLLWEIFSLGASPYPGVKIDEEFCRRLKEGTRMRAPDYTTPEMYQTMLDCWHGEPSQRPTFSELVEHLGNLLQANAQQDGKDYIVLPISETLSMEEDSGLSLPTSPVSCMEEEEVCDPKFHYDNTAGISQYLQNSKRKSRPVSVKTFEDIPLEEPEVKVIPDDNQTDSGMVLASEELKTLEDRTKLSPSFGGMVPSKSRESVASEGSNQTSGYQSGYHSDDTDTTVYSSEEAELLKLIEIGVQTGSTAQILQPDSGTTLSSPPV

10 nM inhibition ratio FGFR1 [1] | 10 nM inhibition ratio KDR [2] | 10 nM inhibition ratio RET [3] | Structure (SMILES)
73.0 | 44.3 | 69.2 | CN1CCN(Cc2ccc(NC(=O)c3ccc(F)c(C#Cc4cccnc4N)c3)cc2C(F)(F)F)CC1 [Example 2]
52.4 | 34.7 | 69.1 | Cc1ccc(C(=O)Nc2ccc(CN3CCN(C)CC3)c(C(F)(F)F)c2)cc1C#Cc1cccnc1N [Example 3]
51.1 | 4.6 | 52.0 | COc1ccc(C(=O)Nc2ccc(CN3CCN(C)CC3)c(C(F)(F)F)c2)cc1C#Cc1cccnc1N [Example 4]
45.1 | 15.2 | 40.1 | CN1CCN(Cc2ccc(NC(=O)c3ccc(C#N)c(C#Cc4cccnc4N)c3)cc2C(F)(F)F)CC1 [Example 5]
80.7 | 38.9 | 92.4 | CN1CCN(Cc2ccc(NC(=O)c3cc(F)cc(C#Cc4cccnc4N)c3)cc2C(F)(F)F)CC1 [Example 7]
46.0 | 30.4 | 53.4 | CN1CCN(Cc2ccc(NC(=O)c3cc(C#Cc4cccnc4N)ccc3F)cc2C(F)(F)F)CC1 [Example 8]
60.7 | 28.9 | 83.4 | CN1CCN(Cc2ccc(NC(=O)c3cc(Cl)cc(C#Cc4cccnc4N)c3)cc2C(F)(F)F)CC1 [Example 9]
36 | 34.5 | 63.4 | CN1CCN(Cc2ccc(NC(=O)c3cc(C#Cc4cccnc4N)cc(C(F)(F)F)c3)cc2C(F)(F)F)CC1 [Example 10]
54.0 | 34.3 | 68.2 | CN1CCN(Cc2ccc(NC(=O)c3cc(C#N)cc(C#Cc4cccnc4N)c3)cc2C(F)(F)F)CC1 [Example 11]
75.1 | 24.0 | 73.2 | Cc1cc(C#Cc2cccnc2N)cc(C(=O)Nc2ccc(CN3CCN(C)CC3)c(C(F)(F)F)c2)c1 [Example 12]
70.2 | 15.1 | 64.3 | COc1cc(C#Cc2cccnc2N)cc(C(=O)Nc2ccc(CN3CCN(C)CC3)c(C(F)(F)F)c2)c1 [Example 13]
46.1 | 20.3 | 57.6 | Cc1ccc(C#Cc2cccnc2N)cc1C(=O)Nc1ccc(CN2CCN(C)CC2)c(C(F)(F)F)c1 [Example 14]
